Experiment [1] concerns Human lung fibroblast cells. The experiment is described as follows: RT-PCR gene expression in TGFβ fibrosis model of human lung fibroblast cells. The format is cell-based. The conditions noted are these: 10 mM for 1 hour, then 2 ng/mL TGFβ 24 hours, relative to untreated cells; for gene expression of Col1α1: FIG. 2A; for gene expression of FN1: FIG. 2B; for gene expression of CTGF: FIG. 2C. The text has this:
Primary human lung fibroblasts were isolated from lung resections of patients undergoing lung cancer surgery or lung transplantation performed after informed consent as approved by an external Research Ethics Committee (REC 15/SC0101) according to Royal Brompton Hospital protocol (Royal Brompton & Harefield NHS Foundation Trust, 2016). Fibroblasts from healthy individuals were also purchased from Lonza (Lonza, Basel, Switzerland).
Real Time PCR After treatment, the supernatant liquid was removed from cell cultures and RLT buffer containing 1% beta-mercaptoethanol was added to each well and then was frozen for later analysis. RNA extraction of cells was performed using the RNeasy Plus Mini Kit (QIAGEN), according to the manufacturer's protocol. Samples were defrosted at room temperature and centrifuged. The homogenate was transferred onto RNeasy MinElute spin columns and purified. RNA was reverse-transcribed into cDNA using the High-Capacity cDNA Reverse Transcription Kit (ThermoFisher) according to the manufacturer's instructions. Real-time PCR was performed using fast-qPCR mastermix (QIAGEN) on a Viia-7 instrument (Applied Biosciences) with Taqman primers for human genes, namely acod1, cd163, fn1, IL-1β, mmp1, mmp9 using actb (Life Technologies) as housekeeping gene.
Fibroblasts are the principal effector cell during lung fibrosis and the main source of the excessive extracellular matrix deposition seen during the disease. To explore the anti-fibrotic properties of itaconate analogues in human fibroblast cells, qPCR experiments were undertaken. Human lung fibroblast cells were seeded (10,000 cells/well) in a 48-well plate and were incubated with ICL-PO, ICL-2, ICL-3, ICL-4, ICL-6, itaconate, dimethyl itaconate, sodium itaconate and dimethyl malonate for 1 hour, after which the supernatant liquid was removed. The healthy fibroblasts were then incubated with 2 ng/mL transforming growth factor beta (TGFβ) for 24 hours in order to mimic pulmonary fibrosis. TGFβ is activated in fibrotic diseases and plays a key role in mediating fibrotic tissue. After treatment, RNA extraction of the cells was performed and 10 μg RNA per sample was reverse transcribed into cDNA. RT-PCR was performed with TaqMan primers for Col1α1, connective tissue growth factor (CTGF) and fibronectin (FN1) human genes. The results are shown in FIG. 2—(A) Gene expression of COL1A1 relative to two housekeeping genes (bactin and Beta-2-Microglobulin-averaged to make a ‘pooled’ control); (B) Gene expression of FN1 relative to housekeeping gene; and (C) Gene expression of CTGF relative to housekeeping gene.

In experiment [2] the test system is Healthy primary human lung fibroblasts. The experiment is described as follows: Seahorse glycolytic stress test (ECAR). The format is cell-based. The conditions noted are these: 0.1 mM, 1 mM and 10 mM for 1 hour, then with or without 2 ng/ml TGF-β1 24 hours; FIGS. 4 and 5. Here is the method:
Healthy primary human lung fibroblasts (10,000 per well) were seeded in a seahorse plate pre-coated with Cell Tak (BD Biosciences, Oxford, UK). After an overnight incubation, fibroblasts were treated with different itaconate analogues for 1 hour and they were subsequently incubated with or without 2 ng/ml TGF-β1 for 24 hours. XF medium (nonbuffered RPMI containing 2 mM glutamine, 1 mM pyruvate and 10 mM glucose, pH 7.4, Agilent, Santa Clara, USA) was used to measure Oxygen Consumption Rate (OCR) and Extracellular Acidification Rate (ECAR) with the XFp extracellular flux analyser. The Seahorse glycolytic Stress Test (Agilent, Santa Clara, USA) was utilized to measure OCR and ECAR at baseline. Healthy primary human lung fibroblasts (10,000 per well) were seeded in a seahorse plate pre-coated with Cell Tak (BD Biosciences, Oxford, UK). After an overnight incubation, fibroblasts were treated with different concentrations (0.1 mM, 1 mM and 10 mM) of the itaconate analogues, citraconate or mesaconate, for 1 hour and they were subsequently incubated with or without 2 ng/ml TGF-β1 for 24 hours. XF medium (nonbuffered RPMI containing 2 mM glutamine, 1 mM pyruvate and 10 mM glucose, pH 7.4, Agilent, Santa Clara, USA) was used to measure an Extracellular Acidification Rate (ECAR) with the XFp extracellular flux analyser for the citraconate assay (FIG. 4) or mesaconate assay (FIG. 5). […]

For experiment [3], the system named is human lung fibroblasts. The conditions noted are these: exogenous itaconate added to cultures; cited from earlier work.
Experiment [4] concerns lung fibrosis in mice. The conditions noted are these: inhaled (particularly oropharyngeal inhalation); cited from earlier work.

In the case of `C/C=C(\CC(=O)O)C(=O)O` [ICL-3, (2E)-2-ethylidenebutanedioic acid], in experiment [1], the “gene expression of Col1α1” value is “decreased gene expression”, the “gene expression of FN1” value is “decreased gene expression” and the “gene expression of CTGF” value was “decreased gene expression”.
For the molecule `C/C(=C/C(=O)O)C(=O)O` [citraconate], in experiment [2], the “Extracellular Acidification Rate (ECAR)” value was “concentration dependent reduction in ECAR”.
As for `C=C(CC(=O)[O-])C(=O)[O-].[Na+].[Na+]` [sodium itaconate, reference compound], in experiment [1], the “gene expression of Col1α1” value was “decreased gene expression”, the “gene expression of FN1” value was “decreased gene expression” and the “gene expression of CTGF” value was “decreased gene expression”.
As for `C=C(CC(=O)OC)C(=O)OC` [dimethyl itaconate], in experiment [1], the “gene expression of Col1α1” value is given as “decreased gene expression”, the “gene expression of FN1” value is on record as “decreased gene expression” and the “gene expression of CTGF” value was “decreased gene expression”.
Regarding `C=C(CC(=O)O)C(=O)OC` [ICL-6, 3-(methoxycarbonyl)but-3-enoic acid], in experiment [1], the “gene expression of Col1α1” value is reported as “decreased gene expression”, the “gene expression of FN1” value is on record as “decreased gene expression” and the “gene expression of CTGF” value was “decreased gene expression”.
With `C=C(CC(=O)N(C)C)C(=O)O` [ICL-PO, 3-(dimethylcarbamoyl)-2-methvlidenepropanoic acid], in experiment [1], the “gene expression of Col1α1” value is recorded as “decreased gene expression”, the “gene expression of FN1” value is listed as “decreased gene expression” and the “gene expression of CTGF” value is “decreased gene expression”.
For the molecule `C/C(=C\C(=O)O)C(=O)O` [mesaconate], the “Extracellular Acidification Rate (ECAR)” value in experiment [2] is “concentration dependent reduction in ECAR”.
As for `COC(=O)CC(=O)OC` [dimethyl malonate, reference compound], in experiment [1], the “gene expression of Col1α1” value is on record as “decreased gene expression”, the “gene expression of FN1” value is “decreased gene expression” and the “gene expression of CTGF” value was “decreased gene expression”.
In the case of `C=C(CC(=O)OC(C)(C)C)C(=O)OC(C)(C)C` [ICL-4, Bis(2-methyl-2-propanyl)-2-methylenesuccinate], in experiment [1], the “gene expression of Col1α1” value is on record as “decreased gene expression”, the “gene expression of FN1” value is listed as “decreased gene expression” and the “gene expression of CTGF” value is recorded as “decreased gene expression”.
For `C=C(CC(=O)O)C(=O)N(C)C` [ICL-2, Sodium 3-(dimethylcarbamovl)-3-methvlidenepropanoate], in experiment [1], the “gene expression of Col1α1” value is listed as “decreased gene expression”, the “gene expression of FN1” value is on record as “decreased gene expression” and the “gene expression of CTGF” value was “decreased gene expression”.
As to `C=C(CC(=O)O)C(=O)O` [itaconate, 2-methylidenebutanedioic acid, reference compound], in experiment [3], the “proliferation of human lung fibroblasts” value is given as “limits” and the “wound healing of human lung fibroblasts” value is given as “limits”. For the same molecule, in experiment [1], the “gene expression of Col1α1” value was “decreased gene expression”, the “gene expression of FN1” value is recorded as “decreased gene expression” and the “gene expression of CTGF” value is “decreased gene expression”. In experiment [4], the lung fibrosis result was “ameliorates lung fibrosis”.

The record behind these values is patent US20250205188A1, “TREATMENT OR PREVENTION OF RESPIRATORY DISEASES CHARACTERISED BY, OR INVOLVING, LUNG FIBROSIS” (IMPERIAL COLLEGE INNOVATIONS LIMITED, priority 2022, published 2025).
